row,Structure (SMILES),melting point [°C]
1,Oc1ccc(N2CCN(n3ccnc3)CC2)cc1,282
2,O=[N+]([O-])c1[nH]c(-c2c(Cl)cc(C(F)(F)F)cc2Cl)nc1Br,292 to 293
3,O=C(O)c1cn(C2COC2)c2c(F)c(N3CCCC3)c(F)cc2c1=O,261 to 262
4,Cc1nc2cc(/C=C/C(=O)NO)ccc2c(=O)n1CCc1ccccc1,227 to 229
5,CCN(Cc1ccc(Cl)nc1)C(=NC#N)NC,122 to 123
6,COC(=O)[C@@H]1C[C@H](O[Si](C)(C)C)C(=O)[C@H]2[C@@]1(C)CC[C@H]1C(=O)O[C@H](c3ccoc3)C[C@]21C,197 to 200
7,O=C(O)c1c(F)c(OC(F)F)c(F)c(F)c1[N+](=O)[O-],77 to 80
8,Cc1csc(Cl)c1NC(=S)Nc1cscc1N,132 to 135
9,Cc1cc(-c2cc(C(F)(F)F)n3ncc(-c4ccncc4)c3n2)ccc1Cl,247
10,CCOC(=O)c1ncn2c1C(C)N=C(c1ccccc1)c1cc(Br)ccc1-2 (configuration not stated),164 to 165
11,CC(C)(C)C(C)(C)Nc1nc(NC(C)(C)C(C)(C)C)nc(N2CCNCC2)n1,183 to 185
12,NS(=O)(=O)c1ccccc1Cc1nnc(S)s1,173 to 197
13,ClC1=Nc2cc(Br)ccc2Oc2cscc21,196 to 197
14,Oc1ccc2nc(Cc3ccc(Cl)cc3)oc2c1,167 to 168
15,COc1cc(Nc2c(C#N)cnc3cc(NC(C)=O)c(OC)cc23)c(Cl)cc1Cl,267 to 270
16,CC(C)(C)c1coc(N)c1C#N,86
17,CCc1c(C)nc2n1N=C(c1ccc(N)cc1)c1cc3c(cc1C2)OCO3,227 to 228
18,CCOC(=O)C(=O)Nc1c([N+](=O)[O-])cc(Cl)cc1C(F)(F)F,100 to 101
19,c1ccc2c(c1)ccc1cnsc12,52

row,Structure (SMILES),melting point [°C]
1,Cc1cc2sccc2c(N)n1,136
2,O=S(=O)(Nc1ccc(Oc2cccc3cccnc23)cc1)c1ccc(Cl)cc1,220
3,O=C(O)C1CCCC(C(=O)O)C1 (configuration not stated),163 to 165
4,O=[N+]([O-])c1c(NCCO)cc(NCCO)cc1NCCO,200
5,CCN1C(=O)c2cnc(-c3ccccc3)nc2N(C(=O)CCl)c2ccccc21,147 to 148
6,CCCCc1nc(Cl)c(C(=O)O)n1Cc1ccc2oc(-c3ccccc3C#N)c(OC)c2c1,158 to 160
7,CNc1cc(O)cc(O)c1,130
8,c1cncc(CC2CCN(CC34CC(c5ccccc53)c3ccccc34)CC2)c1,183 to 185
9,O=CN1CC(CCN2CC=C(c3c[nH]c4cc(Cl)ccc34)CC2)c2ccccc21 (configuration not stated),183 to 185
10,O=C(NNc1ccccc1)N1CCN2C(=O)OC(c3ccccc3)(c3ccccc3)C2C1 (configuration not stated),227 to 228
11,CN(C)CCOc1cc(-c2ccccc2)on1,28 to 29
12,CCOC(=O)c1c(-c2ccccc2)n(-c2ccc(OC)cc2)c2ccccc2c1=O,246 to 247
13,CCCCN(c1nc(N(CC)CC)nc(N(CCCC)C2CC(C)(C)NC(C)(C)C2)n1)C1CC(C)(C)NC(C)(C)C1,74 to 76
14,O=C(Nc1ccc(N2CCN(Cc3ccccc3)CC2)c(Cl)c1)c1ccccn1,92 to 94
15,Cc1nn(C2CCCC2C)c(N)c1C#N (configuration not stated),158 to 159
16,O=[N+]([O-])c1ccc(F)nc1Nc1ccc2c(c1)OCO2,161 to 162
17,Cc1nc(Cn2c(=O)sc3cc(F)c(N4C(=O)C5=C(CCCC5)C4=O)cc32)no1,198 to 199
18,CC1=CCC2(C)C(CCC3C4CCC(O)C4(C)CCC32)C1 (configuration not stated),128 to 130
19,c1nnc2cc3c(cc2c1NCC1CCCO1)OCO3 (configuration not stated),196 to 198

row,Structure (SMILES),melting point [°C]
1,CC(C)(C)C(NC(=O)c1ccc(-c2ccco2)cc1)Nc1c(Nc2cccnc2)c(=O)c1=O (configuration not stated),230 to 232
2,Clc1ccc([Si](Cl)(Cl)Cl)cc1,60 to 61
3,O=C(CC1c2ccccc2C(=O)N1c1ccccc1)N1CCCCC1 (configuration not stated),122 to 123
4,O=C(NCCO)c1ccc(CCN2CCN(Cc3ccccc3Cl)CC2)cc1,121 to 122
5,O=C(O)Cn1c(-c2ccc(Cl)c(Cl)c2)nc2cccnc21,248 to 249
6,CCOCc1nc2c(N)nc3ccccc3c2n1CCCCCS(=O)(=O)NCc1ccc(OC)cc1,177 to 178
7,NS(=O)(=O)c1ccc(NC(=O)CNc2ccccc2)cc1C(F)(F)F,172
8,O=C1CCCCc2ccc([N+](=O)[O-])cc21,88 to 89
9,CC(=O)CCN1CCC(Nc2nc3ccccc3n2Cc2ccc(F)cc2)CC1,131
10,NCc1cc(Cl)c(NC(=O)CN2CCN(CCCCC(c3ccc(F)cc3)c3ccc(F)cc3)CC2C(N)=O)c(Cl)c1 (configuration not stated),161
11,CC1(C(O)C(N)=O)CC=CCC1 (configuration not stated),102 to 110
12,COc1cc(-c2csc(N)n2)cc([N+](=O)[O-])c1O,248 to 250
13,CCC(CC)n1nnc2c(Oc3c(C)cc(C)cc3C)nc(C)nc21,92
14,O=S1(=O)N(CCBr)c2ccccc2N1c1ccc(Cl)cc1,86 to 89
15,CCC1=C(C#N)C(c2ccccc2Cl)c2c[nH]nc2N1 (configuration not stated),> 300
16,Cn1c(C(F)F)nn(-c2cc(O)c(Cl)cc2Cl)c1=O,176 to 179
17,CCOC(=O)c1ccc(-c2ccc(OCCNC3CC3)c(-c3ccc4c(c3)C(C)(C)CCC4(C)C)c2)cc1,141
18,Cc1nc(C=O)c(C)[nH]1,164 to 166
19,Clc1ccc(OC2CCN(CCc3c[nH]c4ccccc34)CC2)cc1,132 to 133

# Further lines, results first:
row,melting point [°C],Structure (SMILES)
1,158 to 160,CC(C)Nc1cccnc1N1CCN(C(=O)c2ccc(C(=O)N3CCN(C)CC3)cc2)CC1
2,93 to 95,CC(=O)OCc1c(Br)cccc1N1Cc2cc(N(C)C)ccc2C1=O
3,74 to 76,COC(=O)c1cc(C(=O)OC)c(O)c([N+](=O)[O-])c1
4,69,O=C(C1CCCC1)[C@H]1CCn2c(cc3ccccc32)C1
5,105 to 107,CC(=O)ON=C(N)c1ccc(C(=O)NCCCNC(=O)[C@@H]2CCCN2S(=O)(=O)c2ccc(Cl)c(COc3cccn4cc(C)nc34)c2Cl)cc1
6,125 to 126,COCCN1CCn2c1nc(C(=O)O)c(OCc1ccccc1)c2=O
7,173 to 174,CN(c1cccc2cc(C3=NCC(CC(=O)N4CCOCC4)S3)[nH]c12)S(=O)(=O)c1cccs1 (configuration not stated)
8,177 to 178,CC(=O)Oc1c(C)c(C)c2c(c1C)C(=O)CC(C)(COc1ccc(N)cc1)O2 (configuration not stated)
9,127 to 128,CCc1cc(SCc2cccc3oc(-c4ccc(C(F)(F)F)cc4)nc23)ccc1OCC(=O)O
10,210 to 212,CCN(CC)CC1CCCCN1C(=O)c1ccc(-c2[nH]nc3c2C(=O)c2c(NC(=O)NN4CCOCC4)cccc2-3)s1 (configuration not stated)
11,48 to 49,CC(=O)OCCCC(=O)CC(=O)c1ccccc1
12,176 to 178,COc1ccc2sc(Nc3ccc(OCCCl)cc3)nc2c1
13,198 to 200,CCOC(=O)NN=C(c1ccc(Cl)cc1)c1ccc(NS(C)(=O)=O)cc1
14,231,CNC(=O)Cc1c(C(=O)c2cc(C)ccn2)[nH]c2cc(Cl)ccc12
15,233 to 235,CCNC(=O)n1cc(F)c(NC(C)=O)nc1=O
16,170 to 172,CC(=O)Nc1cc(C(C)(C)C)cc(OCc2ccccc2)c1C
17,137 to 138,CC(=O)Nc1cccc(CCCCC(=O)O)c1
18,77 to 78,Cc1ccc(S(=O)(=O)OC[C@@H]2NC(=O)[C@@H]2N=[N+]=[N-])cc1 (relative stereo)
19,42,CCOC(=O)C1=COc2ccccc2O1
20,144 to 145,C#CCOC(=O)c1ccc(O)c(Cl)c1
21,127,CC(=O)OC1CSC(Oc2cccc(I)c2)C(OC(C)=O)C1OC(C)=O (configuration not stated)
22,286 to 288,CCCCNC(=O)C1CC2(NC(=O)NC2=O)c2cc(F)ccc2O1 (configuration not stated)
23,125 to 126,CCN(CC)C(=O)COc1ccn2nc(-c3ccccc3)c(-c3ccc(=O)n(C(C)C)n3)c2c1

row,melting point [°C],Structure (SMILES)
1,194 to 198,O=C(NC1CCc2ccc([N+](=O)[O-])cc2C1)c1ccccc1 (configuration not stated)
2,177 to 178,COC(=O)CSCC(=O)c1ccc2[nH]c(=O)[nH]c2c1
3,165,CCOc1ccc2c(c1)n(C1CCCCC1)c(=O)n2Cc1ccc(S(=O)(=O)NC(C)(C)CC)cc1
4,124 to 126,C=C(C1=C(CCC(=O)O)C(O)CC1O)c1ccccc1 (configuration not stated)
5,135,COc1ccc(N=C(N)N(C)C)c(N2CCOCC2)c1
6,113 to 115,CCOC(=O)N1CCOC(CN2C(=O)c3ccccc3C2=O)C1 (configuration not stated)
7,109 to 112,CCOc1c(C)c(N2CCN(c3ccc(OC)cc3)CC2)c(C)c2c1OC(C)(C)C2=O
8,195 to 196,COc1cc2c(cc1OC)CC(NC(=O)C1CCC(=O)N1)CC2 (configuration not stated)
9,200 to 202,Cc1ccc2c(c1)c1c(n2C(=O)c2ccccc2)CCC(C(=O)O)C1 (configuration not stated)
10,87 to 88,O=C(OC1CCCC1=O)c1ccccc1 (configuration not stated)
11,162 to 165,CC(C)NC(=O)Nc1ccc(-c2ccnc3c(C(=O)c4cccs4)cnn23)s1
12,113 to 115,O=C(Nc1ccncn1)C(CC1CCCC1)c1cccc(C(F)(F)F)c1 (configuration not stated)
13,73 to 74,CC/C(=C\CCC(O)(CC)CC)c1csc(COc2ccc(CO)c(CO)c2)c1
14,135,CS(=O)(=O)c1ccc(Oc2ccc([N+](=O)[O-])c(NCCC(N)=O)c2)c(Cl)c1
15,90 to 91,O=C(/C=C/c1cccc(F)c1)NC1CC1
16,168 to 170,CCCC(=O)c1cnc2c(CO)cccc2c1Nc1ccc(F)cc1C
17,114 to 117,O=C(Cc1ccc(I)cc1)N1CCOCC1
18,278 to 280,CNS(=O)(=O)c1ccc(-c2cnc3[nH]cc(C(=O)C(C)(C)C)c3n2)cc1
19,159 to 160,CC(C(N)=O)c1ccc2c(c1)Oc1ccccc1CC2=O (configuration not stated)
20,250,O=C(O)c1cccc(NC(=O)N2CCc3cc(S(=O)(=O)N4CCN(c5cccc(Cl)c5)CC4)ccc32)c1
21,233 to 234,CN1CCC(N(C)C(=O)CNS(=O)(=O)c2ccc(Nc3nccc(Nc4ccc(F)cc4)n3)cc2)CC1
22,134 to 137,COC(=O)c1cccc(C=NNc2ccc(C)cc2)c1O
